Test results published in US20100323990A1, “SHIP 1 MODULATOR PRODRUGS” (THE UNIVERSITY OF BRITISH COLUMBIA, priority 2006, published 2010).

Key:
SHIP enzyme = test: In vitro SHIP enzyme assay (Assay 1), phosphate release by Malachite Green; type: biochemical; for Assay 1: SHIP enzyme assay, desired activity: key: a ‘+’ indicates a positive result for desired activity; a ‘−’ indicates a negative result for desired activity
Description: Assay 1) In vitro testing in a SHIP enzyme assay. Test compounds were dissolved in a suitable solvent (e.g. EtOH, DMSO and others) and diluted into aqueous buffer (20 mM Tris HCl, pH 7.5 and 10 mM MgCl2). SHIP enzyme assays were performed in 96-well microtitre plates with 10 ng of enzyme/well in a total volume of 25 μL of 20 mM Tris HCl, pH 7.5 and 10 mM MgCl2. SHIP enzyme was incubated with test extracts (provided in solvent) or vehicle for 15 min at 23° C. before the addition of 100 μM inositol-1,3,4,5-tetrakisphosphate (Echelon Biosciences Inc, Salt Lake City, Utah). After 20 min at 37° C. and the amount of inorganic phosphate released assessed by the addition of Malachite Green reagent and absorbance measurement at 650 nm. Assay 2) Macrophage TNF-α production. J774.1a macrophage cells were treated with 10 μg/mL of test compound dissolved in solvent (e.g. cyclodextran) for 40 minutes prior to the addition of 100 ng/mL LPS. Culture supernatants were collected after 2 hr and 5 hr for TNF-α determination by ELISA. Assay 3) Macrophage TNF-α NO assay. J774.1a macrophage cells were treated with 10 μg/ml of test compound dissolved in solvent for 40 minutes prior to the addition of LPS. Culture supernatants were collected after 24 hr. for determination of NO concentration using the Griess reagent. Assay 4) Stimulation of mast cells by FcεRI crosslinking. Mast cells were pre-loaded overnight in BMMC medium lacking IL-3 with 0.1 μg/ml anti-DNP IgE (SPE-7, Sigma, Oakville, Ont). For calcium flux measurements, cells were incubated with 2 μM fura 2-acetoxymethyl ester (Molecular Probes, Eugene, Oreg.) in Tyrode's buffer at 23° C. for 45 min. Cells were then washed and incubated in the presence of the test compound 30 min prior to stimulation with the indicated concentration of DNP-human serum albumin (DNP-HSA). Calcium influx was monitored by spectrofluorometry as described previously. For analysis of intracellular signaling, cells were pre-loaded with anti-DNP IgE as above, pre-treated with the test compound for 30 min at 37° C. and stimulated with 20 ng/ml DNP-HSA for 5 min. Total cell lysates were then prepared and analyzed for phospho-PKB, phospho-p38^MAPK, phospho-MAPK, Grb-2 (Cell Signalling, Mississauga, Ont) and SHIP^6 by immunoblot analysis. Assay 5) Mouse acute cutaneous anaphylaxis model. 6-8 week old CD1 mice (University of British Columbia Animal Facility, Vancouver, BC) were sensitized to the hapten DNP by cutaneous application of 25 μL of 0.5% dinitrofluorobenzene (DNFB) (Sigma, Oakville, Ont) in acetone to the shaved abdomen of mice for two consecutive days. 24 hrs later, test substances (dissolved in 10 μL of 1:2 DMSO:MeOH) were painted on the right ear while the left ear received vehicle control. 30 min after drug application, DNFB was applied to both ears to induce mast cell degranulation. A 6 mm punch was taken from the ear and immediately frozen on dry ice for subsequent determination of neutrophil myeloperoxidase (MPO) activity. Assay 6) Mouse endotoxemia model. 6-8 week old C57B16 mice (VCHRI Mammalian Model of Human Disease Core Facility, Vancouver, BC) were orally administered the test compound 30 min prior to an IP injection of 2 mg/kg of LPS (E. Coli serotype 0111:B4, Sigma, Oakville, Ont). Blood was drawn 2 hrs later for determination of plasma TNFα by ELISA. Assay 7) In vitro Mulitple Myeloma (MM) assay. The ability of SHIP activators to reduce tumor cell survival was assessed in MM cell lines treated with the test compound. The lines OPM1, OPM2, MM.1S and RPMI 8226 were plated at a density of 1×10^5 cells/mL in 200 μL of medium with various concentrations of the test compound, and viable cell numbers were determined on day 3 and day 5 by trypan blue exclusion. The lines RPMI 8226 and U266 were plated at a density of 1×10^6 cells/mL in 250 μL of medium with various concentrations of the test compound. At day 4, the medium of each culture was replaced by fresh medium containing the same concentration of test compound. […]

SHIP C2 domain = test: Scintillation proximity assay, C2 domain; type: binding; settings: C2 domain 10 nM on SPA beads
Description: Compound 100 was radiolabelled with tritium by GE Healthcare (Piscataway, N.J.) to a specific activity of 42 Ci/mmole. Copper chelate (His-Tag) YSi SPA Scintillation Beads (GE ealthcare, Piscataway, N.J.) were diluted in 0.25% BSA/TBS to 1.5 mg/mL and recombinant, His6-tagged protein added at the indicated concentrations: wild-type (1 pM), ΔC2 SHIP enzyme (1 pM) or C2 domain (10 nM). Protein was allowed to bind 1 h at 23° C., and 250 μg of beads were aliquoted per well of a 96-well plate. 5 μCi of [^3H]-Compound 100 was added per well, the plate gently agitated for 30 min and the amount of bead associated radioactivity quantified by counting in a Wallac BetaPlate plate scintillation counter.
Isolated recombinant, His6-tagged C2 domain was expressed and its PI-3,4-P2 binding ability was determined using protein lipid overlay assays. Purified C2 domain was incubated with membrane strips spotted with PI-3,4-P2 and bound protein detected using an anti-His6 antibody. As shown in FIG. 11C the C2 domain bound PI-3,4-P2 and this binding was inhibited by Compound 100, consistent with both Compound 100 and PI-3,4-P2 interacting with the C2 domain at a common binding site.

Q: With `Cc1cc(O)cc2c1[C@]1(C)CCC3C(C)(C)CCC[C@]3(C)[C@H]1C2` (stereo partly drawn) [Compound 100] as the molecule, how does the “SHIP enzyme activity in vitro” value (SHIP enzyme) read?
A: The value was “enhanced SHIP enzyme activity in vitro”.

Q: And the “Assay 1: SHIP enzyme assay, desired activity” value (SHIP enzyme; 10 ng enzyme/well, 100 μM inositol-1,3,4,5-tetrakisphosphate)?
A: Its value is “+”.

Q: And the “binding of [3H]-Compound 100 to C2 domain” value (SHIP C2 domain)?
A: Its value is “directly bind the C2 domain”.
